Earlier results as cited in patent US7147859B2 (Laboratorios Biosintetica LTDA., priority 2000, dated 2006).

Test system: cholesterol absorbance
Details: in vivo

## CCC(CCC(C)C1CCC2C3CC=C4CC(O)CCC4(C)C3CCC12C)C(C)C (stereo not shown) [Betasitosterol]
  reduction of cholesterol absorbance: up to 68%
